Patent US8524745B2 (Allergan, Inc., priority 2011, dated 2013)
pIC50: −log10 of the molar value.

molecular target: T1, CCR2 (Homo sapiens, UniProt P41597); assay: CCR2 calcium activity assay on FLIPR Tetra in HEK-Gqi5 cells stably expressing CCR2; format: cell-based
T1 construct: expressed in transfected cells
Procedure: HEK-Gqi5 cells stably expressing CCR2 were cultured in (DMEM high glucose, 10% FBS, 1% PSA, 400 μg/ml geneticin and 50 μg/ml hygromycin. Appropriate positive control chemokines (MCP-1, MIP1A or RANTES) was used as the positive control agonist for screening compound-induced calcium activity assayed on the FLIPR^Tetra. The drug plates were prepared in 384-well microplates using the EP3 and the MuItiPROBE robotic liquid handling systems. Compounds were synthesized and tested for CCR2 activity.

T1 sequence (P41597 whole entry, species assumed): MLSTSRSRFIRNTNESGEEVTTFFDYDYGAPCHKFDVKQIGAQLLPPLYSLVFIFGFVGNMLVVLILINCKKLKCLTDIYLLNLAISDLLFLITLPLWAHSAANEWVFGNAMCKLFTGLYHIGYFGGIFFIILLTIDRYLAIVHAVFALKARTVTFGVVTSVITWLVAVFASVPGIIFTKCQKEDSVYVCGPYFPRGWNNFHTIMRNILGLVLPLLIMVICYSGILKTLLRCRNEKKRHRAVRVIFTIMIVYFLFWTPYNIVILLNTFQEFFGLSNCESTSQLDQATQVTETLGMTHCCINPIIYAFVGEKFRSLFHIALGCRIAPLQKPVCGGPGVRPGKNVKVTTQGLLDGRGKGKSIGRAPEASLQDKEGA

Molecule	CCR2 % ANTAG [%]	pIC50
Cn1sc(=O)c2cc(S(=O)(=O)Nc3ccccc3NS(=O)(=O)c3cccc(F)c3)ccc21 [N-(2-{[(3-fluorophenyl)sulfonyl]amino}phenyl)-1-methyl-3-oxo-1,3-dihydro-2,1-benzisothiazole-5-sulfonamide]	100	5.62
Cn1sc(=O)c2cc(S(=O)(=O)Nc3cc(Cl)cnc3C(=O)N3CCC(=O)CC3)ccc21 [N-{5-chloro-2-[(4-oxopiperidin-1-yl)carbonyl]pyridin-3-yl}-1-methyl-3-oxo-1,3-dihydro-2,1-benzisothiazole-5-sulfonamide]	58	–
CC(C)n1sc(=O)c2cc(S(=O)(=O)Nc3cccc4c3OC(F)(F)C(F)(F)O4)ccc21 [1-isopropyl-3-oxo-N-(2,2,3,3-tetrafluoro-2,3-dihydro-1,4-benzodioxin-5-yl)-1,3-dihydro-2,1-benzisothiazole-5-sulfonamide]	68	6.25
Cn1sc(=O)c2cc(S(=O)(=O)Nc3ccccc3NS(=O)(=O)c3cccc(C(F)(F)F)c3)ccc21 [1-methyl-3-oxo-N-[2-({[3-(trifluoromethyl)phenyl]sulfonyl}amino)phenyl]-1,3-dihydro-2,1-benzisothiazole-5-sulfonamide]	94	5.65
Cn1sc(=O)c2cc(S(=O)(=O)N3CCN(S(=O)(=O)c4cccs4)c4ccccc43)ccc21 [1-methyl-5-{[4-(2-thienylsulfonyl)-3,4-dihydroquinoxalin-1(2H)-yl]sulfonyl}-2,1-benzisothiazol-3(1H)-one]	65	5.68
Cn1sc(=O)c2cc(S(=O)(=O)Nc3cc(Cl)ccc3NS(=O)(=O)c3cc(Cl)cc(Cl)c3)ccc21 [N-(5-chloro-2-{[(3,5-dichlorophenyl)sulfonyl]amino}phenyl)-1-methyl-3-oxo-1,3-dihydro-2,1-benzisothiazole-5-sulfonamide]	94	5.58
CN(C)c1ccc(NS(=O)(=O)c2ccc3c(c2)c(=O)sn3C)c(NS(=O)(=O)c2cccs2)c1 [N-{4-(dimethylamino)-2-[(2-thienylsulfonyl)amino]phenyl}-1-methyl-3-oxo-1,3-dihydro-2,1-benzisothiazole-5-sulfonamide]	78	5.91
Cn1sc(=O)c2cc(S(=O)(=O)N3CCC(NS(=O)(=O)c4cccs4)C3)ccc21 (stereo not shown) [N-{1-[(1-methyl-3-oxo-1,3-dihydro-2,1-benzisothiazol-5-yl)sulfonyl]pyrrolidin-3-yl}thiophene-2-sulfonamide]	44	5.56
Cn1sc(=O)c2cc(S(=O)(=O)Nc3ccccc3NS(=O)(=O)c3ccccc3)ccc21 [1-methyl-3-oxo-N-{2-[(phenylsulfonyl)amino]phenyl}-1,3-dihydro-2,1-benzisothiazole-5-sulfonamide]	97	6.05
Cn1sc(=O)c2cc(S(=O)(=O)Nc3cc(C(F)(F)F)ccc3NS(=O)(=O)c3cccs3)ccc21 [1-methyl-3-oxo-N-{2-[(2-thienylsulfonyl)amino]-5-(trifluoromethyl)phenyl}-1,3-dihydro-2,1-benzisothiazole-5-sulfonamide]	103	6.15
Cn1sc(=O)c2cc(S(=O)(=O)Nc3cccc(C(F)(F)F)c3)ccc21 [1-methyl-3-oxo-N-[3-(trifluoromethyl)phenyl]-1,3-dihydro-2,1-benzisothiazole-5-sulfonamide]	84	–
COc1cccc(S(=O)(=O)Nc2cc(Cl)c(Cl)cc2NS(=O)(=O)c2ccc3c(c2)c(=O)sn3C)c1 [N-(4,5-dichloro-2-{[(3-methoxyphenyl)sulfonyl]amino}phenyl)-1-methyl-3-oxo-1,3-dihydro-2,1-benzisothiazole-5-sulfonamide]	92	6.19
Cn1sc(=O)c2cc(S(=O)(=O)Nc3cccc(NS(=O)(=O)c4cccs4)c3)ccc21 [1-methyl-3-oxo-N-{3-[(2-thienylsulfonyl)amino]phenyl}-1,3-dihydro-2,1-benzisothiazole-5-sulfonamide]	23	5.54
Cn1sc(=O)c2cc(C(=O)Nc3cc(Cl)ccc3NS(=O)(=O)c3cccs3)ccc21 [N-{5-chloro-2-[(2-thienylsulfonyl)amino]phenyl}-1-methyl-3-oxo-1,3-dihydro-2,1-benzisothiazole-5-carboxamide]	99	–
COc1ccccc1S(=O)(=O)Nc1ccc(Cl)cc1NS(=O)(=O)c1ccc2c(c1)c(=O)sn2C [N-(5-chloro-2-{[(2-methoxyphenyl)sulfonyl]amino}phenyl)-1-methyl-3-oxo-1,3-dihydro-2,1-benzisothiazole-5-sulfonamide]	91	6.40
COc1ccc(S(=O)(=O)Nc2ccc(Cl)cc2NS(=O)(=O)c2ccc3c(c2)c(=O)sn3C)c(OC)c1 [N-(5-chloro-2-{[(2,4-dimethoxyphenyl)sulfonyl]amino}phenyl)-1-methyl-3-oxo-1,3-dihydro-2,1-benzisothiazole-5-sulfonamide]	95	5.77

Molecule	CCR2 % ANTAG [%]	pIC50
Cn1sc(=O)c2cc(S(=O)(=O)Nc3c(Cl)cccc3NS(=O)(=O)c3cccs3)ccc21 [N-{2-chloro-6-[(2-thienylsulfonyl)amino]phenyl}-1-methyl-3-oxo-1,3-dihydro-2,1-benzisothiazole-5-sulfonamide]	106	6.33
Cn1sc(=O)c2cc(S(=O)(=O)Nc3cc(Cl)ccc3NS(=O)(=O)c3cccc(Cl)c3)ccc21 [N-(5-chloro-2-{[(3-chlorophenyl)sulfonyl]amino}phenyl)-1-methyl-3-oxo-1,3-dihydro-2,1-benzisothiazole-5-sulfonamide]	91	6.31
Cn1sc(=O)c2cc(S(=O)(=O)N[C@@H]3CCCC[C@@H]3NS(=O)(=O)c3cccs3)ccc21 (relative stereo) [rel-1-methyl-3-oxo-N-{(1R,2S)-2-[(2-thienylsulfonyl)amino]cyclohexyl}-1,3-dihydro-2,1-benzisothiazole-5-sulfonamide]	65	5.66
Cn1sc(=O)c2cc(S(=O)(=O)Nc3cc(Cl)ccc3NS(=O)(=O)c3cccs3)ccc21 [N-{5-chloro-2-[(2-thienylsulfonyl)amino]phenyl}-1-methyl-3-oxo-1,3-dihydro-2,1-benzisothiazole-5-sulfonamide]	98	6.63
Cn1sc(=O)c2cc(S(=O)(=O)Nc3ccccc3NS(=O)(=O)c3ccc(Cl)cc3)ccc21 [N-(2-{[(4-chlorophenyl)sulfonyl]amino}phenyl)-1-methyl-3-oxo-1,3-dihydro-2,1-benzisothiazole-5-sulfonamide]	99	5.97
N,N-dimethyl-N-(4-{[(1-methyl-3-oxo-1,3-dihydro-2,1-benzisothiazol-5-yl)carbonyl]amino}benzyl)tetrahydro-2H-pyran-4-aminium	85	5.93
Cn1sc(=O)c2cc(S(=O)(=O)Nc3ccccc3NS(=O)(=O)c3cc(Cl)cc(Cl)c3)ccc21 [N-(2-{[(3,5-dichlorophenyl)sulfonyl]amino}phenyl)-1-methyl-3-oxo-1,3-dihydro-2,1-benzisothiazole-5-sulfonamide]	95	5.59
CC(C)c1ccc(NS(=O)(=O)c2ccc3c(c2)c(=O)sn3C)c(NS(=O)(=O)c2cccs2)c1 [N-{4-isopropyl-2-[(2-thienylsulfonyl)amino]phenyl}-1-methyl-3-oxo-1,3-dihydro-2,1-benzisothiazole-5-sulfonamide]	87	6.05
Cn1sc(=O)c2cc(S(=O)(=O)Nc3cccc4c3Oc3ccccc3O4)ccc21 [N-dibenzo[b,e][1,4]dioxin-1-yl-1-methyl-3-oxo-1,3-dihydro-2,1-benzisothiazole-5-sulfonamide]	67	5.84
Cc1cc(NS(=O)(=O)c2cccs2)c(NS(=O)(=O)c2ccc3c(c2)c(=O)sn3C)cc1Cl [N-{5-chloro-4-methyl-2-[(2-thienylsulfonyl)amino]phenyl}-1-methyl-3-oxo-1,3-dihydro-2,1-benzisothiazole-5-sulfonamide]	91	6.27
Cc1cc(NS(=O)(=O)c2ccc3c(c2)c(=O)sn3C)c(NS(=O)(=O)c2cccs2)cc1Cl [N-{4-chloro-5-methyl-2-[(2-thienylsulfonyl)amino]phenyl}-1-methyl-3-oxo-1,3-dihydro-2,1-benzisothiazole-5-sulfonamide]	75	6.51
COC(=O)c1ccc(NS(=O)(=O)c2ccc3c(c2)c(=O)sn3C)c(NS(=O)(=O)c2cccs2)c1 [methyl 4-{[(1-methyl-3-oxo-1,3-dihydro-2,1-benzisothiazol-5-yl)sulfonyl]amino}-3-[(2-thienylsulfonyl)amino]benzoate]	0	< 5.08
COc1cccc(NS(=O)(=O)c2ccc3c(c2)c(=O)sn3C)c1NS(=O)(=O)c1cccs1 [N-{3-methoxy-2-[(2-thienylsulfonyl)amino]phenyl}-1-methyl-3-oxo-1,3-dihydro-2,1-benzisothiazole-5-sulfonamide]	52	–
Cn1sc(=O)c2cc(S(=O)(=O)Nc3cc(Cl)ccc3NS(=O)(=O)c3ccc(O)cc3)ccc21 [N-(5-chloro-2-{[(4-hydroxyphenyl)sulfonyl]amino}phenyl)-1-methyl-3-oxo-1,3-dihydro-2,1-benzisothiazole-5-sulfonamide]	95	6.31
Cn1sc(=O)c2cc(S(=O)(=O)Nc3ccccc3NS(=O)(=O)c3cc(F)cc(F)c3)ccc21 [N-(2-{[(3,5-difluorophenyl)sulfonyl]amino}phenyl)-1-methyl-3-oxo-1,3-dihydro-2,1-benzisothiazole-5-sulfonamide]	96	6.36
